“Also recorded” adds a separate entry of the source. Like-named read-outs stand apart in the source and are kept apart here.
Legend:
[1] = target: T. vaginalis Tv20S proteasome β1 subunit (Trichomonas vaginalis, UniProt A2E7Z2); assay: In vitro proteasome assay, Ac-RYFD-amc substrate; type: biochemical; details: recombinant Tv20S, mean ± SD of three experiments
Description: (§1) The T. vaginalis proteasome was expressed in recombinant form as previously described ([27]). Briefly, Spodoptera frugiperda cells were co-infected with three baculovirus vectors carrying the T. vaginalis genes for the 7 α-subunits, 7 β-subunits, and the Ump-1 chaperone, respectively. The resulting proteasome complex was purified from cell lysates via streptavidin column and size exclusion chromatography and stored at −80°C. Purified human c20S proteasome and recombinant human proteasome activator PA28α ([21]) were obtained from Bio-Techne and stored at −80°C. Dilutions of the test agents were transferred to 384-well plates (Greiner Bio-One) in triplicate wells using an Echo 650 Acoustic Liquid Handler (Beckman Coulter). Six replicate plates were prepared for each compound for testing with three T. vaginalis-optimized substrates and three human-optimized substrates. After dispensing, plates were sealed and stored at −20°C. The following fluorescent substrates and final substrate concentrations were used to assay subunit activities of the T. vaginalis proteasome (Tv20S) ([28]) or the human constitutive proteasome (c20S) ([19], [52]): Ac-RYFD-amc (Genscript) at 100 µM for Tv20S β1 subunit, Ac-FRSR-amc (Genscript) at 20 µM for Tv20S β2 subunit, Ac-GWYL-amc (Genscript) at 20 µM for Tv20S β5 subunit, z-LLE-amc (R&D Systems) at 80 µM for c20S β1 subunit, z-VLR-amc (AdipoGen Life Sciences) at 30 µM for c20S β2 subunit, and suc-LLVY-amc (R&D Systems) at 65 µM for c20S β5 subunit. Substrates and proteasomes were diluted in an assay buffer consisting of HEPES pH 7.5 and 1 mM DTT. For the human proteasome assays, 2 nM c20S was incubated at room temperature with 200 nM PA28α for 1 h to activate the complex prior to addition to the 384-well plates containing the substrate-inhibitor mixtures. […] Both proteasomes were added to the wells at a 1 nM final assay concentration. Fluorescence was measured over 4 h at 360 nm excitation and 460 nm emission on a Biotek Synergy HTX plate reader.

[2] = target: T. vaginalis Tv20S proteasome β5 subunit (Trichomonas vaginalis, UniProt A2DD57+A2F716); assay: biochemical; type: biochemical
Description: as §1

[3] = tested on: T. vaginalis Tv20S proteasome β2 subunit; assay: In vitro proteasome assay, Ac-FRSR-amc substrate; type: biochemical, Trichomonas vaginalis; details: recombinant Tv20S, mean ± SD of three experiments; for IC50: read-out: Tv20S proteasome inhibition of β2 subunit (IC50)
Description: as §1

[4] = target: T1, Human c20S proteasome β1 subunit (Homo sapiens, UniProt P28072+Q99436); assay: In vitro proteasome assay, z-LLE-amc substrate; type: biochemical; details: purified human c20S with PA28α, mean ± SD; for IC50: read-out: Human c20S proteasome inhibition of β1 subunit (IC50)
T1 construct: purchased Bio-Techne
Description: as §1

[5] = target: T2, Human c20S proteasome β5 subunit (Homo sapiens, UniProt P20618+P28074); assay: In vitro proteasome assay, suc-LLVY-amc substrate; type: biochemical; details: purified human c20S with PA28α, mean ± SD
T2 construct: purchased Bio-Techne
Description: as §1

[6] = target: T3, Human c20S proteasome β2 subunit (Homo sapiens, UniProt P49720+Q99436); assay: In vitro proteasome assay, z-VLR-amc substrate; type: biochemical
T3 construct: purchased Bio-Techne
Description: as §1

[7] = tested on: T. vaginalis strain F1623; assay: 24 h growth and survival assay (ATP luminescence, GI50); type: cell-based, Trichomonas vaginalis; details: for SI (ratio of GI50 in HeLa cells over GI50 in T. vaginalis): T. vaginalis F1623 vs human HeLa cells
Description: The following T. vaginalis strains were used: F1623 ([50]), G3 (ATCC PRA-98), and LA1 ([25]). […] Drug susceptibility assays were performed as described previously ([23]) with several minor modifications. Briefly, 10 mM stocks of the test compounds in DMSO were serially diluted 1:3 using an Echo 650 Acoustic Liquid Handler (Beckman Coulter). Subsequently, trophozoites (5 × 10^3/well) in TYM modified media were added to the wells in 384-well plates, and cultures were incubated for 24 h at 37°C under anaerobic conditions (AnaeroPack-Anaero System; Remel). For testing in mammalian cells, the following cell lines were used: Human cervical cancer cells HeLa (ATCC CCL-2), non-transformed mouse fibroblast cell line 3T3-L1 (ATCC CL-173), normal monkey kidney epithelial cell line Vero (ATCC CCL-81), and human B lymphoma cells Raji (ATCC CCL-86). Test compounds were serially diluted (1:3) and added to mammalian cell cultures grown in 384-well plates, and cultures were incubated for 48 h at 37°C in 5% CO2, 95% air. Growth and viability of T. vaginalis and mammalian cells were determined with an ATP assay by adding the BacTiter-Glo Microbial Cell Viability Assay reagent (Promega) directly to the wells and measuring ATP-dependent luminescence in a microplate reader. […] Experiments were repeated at least three times, and the mean and SEM of the pGI50 values were calculated.

[8] = recombinant Tv20S, mean ± SD of three experiments, read-out: Tv20S proteasome inhibition of β5 subunit (IC50)
[9] = read-out: Human c20S proteasome inhibition of β5 subunit (IC50)
[10] = purified human c20S with PA28α, mean ± SD, read-out: Human c20S proteasome inhibition of β2 subunit (IC50)
[11] = purified human c20S with PA28α, mean ± SD
[12] = relative to parental compound 4

T. vaginalis Tv20S proteasome β1 subunit, sequence (A2E7Z2 entry or part of it): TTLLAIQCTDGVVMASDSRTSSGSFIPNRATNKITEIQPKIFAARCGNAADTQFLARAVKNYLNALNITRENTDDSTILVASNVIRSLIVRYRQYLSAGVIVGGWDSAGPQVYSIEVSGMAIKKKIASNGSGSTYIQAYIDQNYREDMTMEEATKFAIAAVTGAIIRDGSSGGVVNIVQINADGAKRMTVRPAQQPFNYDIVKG
T. vaginalis Tv20S proteasome β5 subunit, sequence (A2DD57 entry or part of it): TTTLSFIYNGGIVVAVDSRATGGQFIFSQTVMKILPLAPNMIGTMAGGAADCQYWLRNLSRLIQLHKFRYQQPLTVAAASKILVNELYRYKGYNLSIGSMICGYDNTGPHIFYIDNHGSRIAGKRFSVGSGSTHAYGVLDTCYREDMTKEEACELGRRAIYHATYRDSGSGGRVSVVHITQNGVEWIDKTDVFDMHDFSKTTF
T. vaginalis Tv20S proteasome β5 subunit, sequence (A2F716 entry or part of it): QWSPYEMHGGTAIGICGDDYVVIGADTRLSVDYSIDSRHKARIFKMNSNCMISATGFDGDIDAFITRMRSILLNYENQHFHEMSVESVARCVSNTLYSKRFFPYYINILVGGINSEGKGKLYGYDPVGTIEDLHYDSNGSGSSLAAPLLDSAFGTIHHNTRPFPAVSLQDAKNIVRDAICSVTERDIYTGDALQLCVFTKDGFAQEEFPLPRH

| Structure (SMILES) | Tv20S proteasome inhibition of β1 subunit (IC50) [1] | IC50 [2, 8] [nM] | Tv20S proteasome inhibition of β2 subunit (IC50) [3] | Human c20S proteasome inhibition of β1 subunit (IC50) [4] | IC50 [5, 9] [nM] | SI (ratio of GI50 in HeLa cells over GI50 in T. vaginalis) [7] | further results |
| --- | --- | --- | --- | --- | --- | --- | --- |
| CCCCC(=O)N[C@H](Cc1c[nH]c2ccccc12)C(=O)N[C@@H](Cc1c[nH]c2ccccc12)C(=O)N[C@@H](Cc1ccccc1)C(=O)[C@]1(C)CO1 [compound 91] | Activation | 2.52 ± 1.05 | No inhibition | No inhibition | 8.81 ± 0.69 |  |  |
| CSc1ccc(CC(=O)NC(C(=O)NC(Cc2c(F)c(F)c(F)c(F)c2F)C(=O)N[C@@H](CC(C)C)C(=O)[C@@]2(C)CO2)C(C)C)cc1 (some centres unmarked) [compound 50] | Activation | 9.25 ± 1.81 | No inhibition | No inhibition | 13.8 ± 4.21 |  | IC50 [6, 10]: 64.7 ± 8.19 nM |
| CC(C)C[C@H](NC(=O)[C@H](Cc1ccccc1)NC(=O)c1cnccn1)B(O)O [43 (BTZ), bortezomib, reference compound] |  |  |  |  |  |  | IC50 ([2]; read-out: Tv20S proteasome inhibition of β5 subunit (IC50)): 21.6 ± 1.69 nM; IC50 [3]: 30.8 ± 19.9 nM |
| CC(C)CC(NC(=O)C(CC12CC3CC(CC(C3)C1)C2)NC(=O)c1cnccn1)B(O)O (centres unmarked) [compound 32] |  |  |  |  |  | 1.02 |  |
| COc1ccc(C[C@H](NC(=O)[C@H](C)NC(=O)CN2CCOCC2)C(=O)N[C@@H](CC2CCCCC2)C(=O)[C@@]2(C)CO2)cc1 [compound 156] |  |  |  |  |  | 0.83 |  |
| CCCCCC(=O)N[C@H](CCC(=O)OC(C)(C)C)CC(=O)N[C@@H](CCCC)C(=O)N[C@@H](Cc1ccccc1)C(=O)[C@@]1(C)CO1 [compound 94] |  |  |  |  |  | 3.16 | growth inhibitory activity against T. vaginalis (in words) ([7]; F1623): lacked activity and selectivity |
| CCCC[C@H](NC(=O)[C@H](CC(=O)N1CCCC1)NC(=O)[C@H](Cc1ccc(OC)cc1)N1CCCC1=O)C(=O)N[C@@H](Cc1ccc(F)cc1F)C(=O)[C@@]1(C)CO1 [compound 45] | Activation | 82.6 ± 32.1 | No inhibition | No inhibition | 1010 |  | Human c20S proteasome inhibition of β2 subunit (IC50) [6, 11]: No inhibition |
| COc1ccc(C[C@H](NC(=O)[C@H](C)NC(=O)C2=C(C)c3ccccc3C2)C(=O)N[C@@H](Cc2ccc(-c3ccccc3)cc2)C(=O)[C@@]2(C)CO2)cc1 [compound 20] | Activation | 44.1 ± 6.71 | No inhibition | No inhibition | 39.4 ± 4.76 | 16.2 | Human c20S proteasome inhibition of β2 subunit (IC50) [6, 11]: No inhibition |
| CCCCCC(=O)N[C@@H](CO)C(=O)N[C@@H](CCCC)C(=O)N[C@@H](Cc1ccccc1)C(=O)[C@@]1(C)CO1 [compound 19] | Activation | 21 ± 2.47 | No inhibition | No inhibition | 8.16 ± 1.8 |  | IC50 [6, 10]: 2160 nM |
| COc1ccc(C[C@H](NC(=O)[C@H](C)NC(=O)CN2CCOCC2)C(=O)N[C@@H](CC2CCC(c3ccccc3)CC2)C(=O)[C@@]2(C)CO2)cc1 (some centres unmarked) [compound 201] |  |  |  |  |  | < 0.72 |  |
| C[C@@]12OC(=O)[C@]1([C@@H](O)[C@@H]1C=CCCC1)NC(=O)[C@@H]2CCCl [18 (MZB), marizomib, reference compound] |  |  | No inhibition |  |  |  | IC50 ([2]; Tv20S proteasome inhibition of β5 subunit (IC50), recombinant Tv20S, mean ± SD of three experiments): 0.88 ± 0.11 nM; IC50 [4]: 66.5 ± 11.7 nM; IC50 [6, 10]: 46.7 ± 11.2 nM |
| COc1ccc(C[C@H](NC(=O)[C@H](C)NC(=O)C2=C(C)c3ccccc3C2)C(=O)N[C@@H](Cc2ccccc2)C(=O)[C@]2(C)CO2)cc1 [compound 22] | Activation | 60.5 ± 8.1 | No inhibition | No inhibition | 84.8 ± 20.2 | 16.6 | Human c20S proteasome inhibition of β2 subunit (IC50) [6, 11]: No inhibition |
| COc1ccc(C[C@H](NC(=O)[C@H](C)NC(=O)CN2CCOCC2)C(=O)N[C@@H](Cc2ccc3ccccc3c2)C(=O)[C@@]2(C)CO2)cc1 [compound 35] |  |  |  |  |  | 3.47 |  |
| COc1ccc(C[C@H](NC(=O)[C@H](C)NC(=O)CN2CCOCC2)C(=O)N[C@@H](CC2CCC(C3CCCCC3)CC2)C(=O)[C@@]2(C)CO2)cc1 (some centres unmarked) [compound 197] |  |  |  |  |  | < 0.71 |  |
| COc1ccc(C[C@H](NC(=O)[C@H](C)NC(=O)C2=C(C)c3ccccc3C2)C(=O)N[C@@H](Cc2ccc(-c3ccccc3)cc2)C(=O)[C@]2(C)CO2)cc1 [compound 60] |  |  |  |  |  | 8.13 |  |
| COc1ccc(CC(NC(=O)C(C)NC(=O)CN2CCOCC2)C(=O)NC(Cc2ccc(-c3ccccc3)cc2)C(=O)C2(C)CO2)cc1 (centres unmarked) [compound 3] | Activation | 12 ± 1.94 | No inhibition | No inhibition |  | 36.3 | IC50 ([5]; Human c20S proteasome inhibition of β5 subunit (IC50)): 18.1 ± 3.26 nM; IC50 [6]: 271 ± 26.4 nM |
| CCCCC(=O)N[C@@H](Cc1ccc(O)cc1)C(=O)N[C@@H](CCCC)C(=O)N[C@@H](Cc1ccccc1)C(=O)[C@@]1(C)CO1 [compound 5] | Activation | 2.43 ± 0.39 | No inhibition | No inhibition | 1.06 ± 0.08 |  | IC50 [6, 10]: 68.2 ± 13 nM |
| COc1ccc(C[C@H](NC(=O)[C@H](C)NC(=O)C2=C(C)c3ccccc3C2)C(=O)N[C@@H](Cc2ccccc2)C(=O)[C@@H]2CO2)cc1 [compound 66] |  |  |  |  |  | 2.69 | loss in selectivity [7, 12]: ~ 10 fold; reduction in activity against T. vaginalis [7, 12]: ~ 50 fold |
| CCCCCC(=O)N[C@H](CC(=O)N[C@@H](CCCC)C(=O)N[C@@H](Cc1ccc(F)cc1F)C(=O)[C@@]1(C)CO1)CC(=O)OC(C)(C)C [compound 75] | Activation | 172 ± 91.7 | No inhibition | No inhibition |  |  | Human c20S proteasome inhibition of β5 subunit (IC50) [5]: no measurable c20S β5 inhibitory activity; also recorded: No inhibition; Human c20S proteasome inhibition of β2 subunit (IC50) [6, 11]: No inhibition |
| CCCCCC(=O)N[C@H](C(=O)N[C@@H](CCS(C)(=O)=O)C(=O)N[C@@H](CC(C)C)C(=O)[C@@]1(C)CO1)C(C)C [38 (CPB), carmaphycin B, reference compound] | Activation | 1.51 ± 0.69 |  |  | 7.92 ± 0.72 |  | β5 SI ratio (c20S/Tv20S) [2]: 5.25; IC50 [3]: 440 ± 101 nM; IC50 [4]: 895 ± 510 nM; IC50 [6, 10]: 14.6 ± 0.83 nM |

Source: article PMC12691669, “Inhibitors of the 20S proteasome β5 subunit as potent and selective agents against Trichomonas vaginalis” (Antimicrobial Agents and Chemotherapy, 2025)
